# Measured values taken from PMC9102502, “The Influence of Selected Antipsychotic Drugs on Biochemical Aspects of Alzheimer’s Disease” (International Journal of Molecular Sciences, 2022).
# Where “and” joins values, the source holds several entries; their conditions need not be identical. Identical values can stand only once.
# Tests used:
# BuChE [1] = target: T1, BuChE (Homo sapiens, UniProt P06276); test: Synergism of antipsychotics with donepezil/rivastigmine (binary mixtures), BuChE; conditions: ComboSyn;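 further: combination index derived by median-effect analysis of combined drug effects on the cholinesterase, with values below 1 meaning synergism, exactly 1 additivity and above 1 antagonism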
# T1 sequence (P06276 29-602): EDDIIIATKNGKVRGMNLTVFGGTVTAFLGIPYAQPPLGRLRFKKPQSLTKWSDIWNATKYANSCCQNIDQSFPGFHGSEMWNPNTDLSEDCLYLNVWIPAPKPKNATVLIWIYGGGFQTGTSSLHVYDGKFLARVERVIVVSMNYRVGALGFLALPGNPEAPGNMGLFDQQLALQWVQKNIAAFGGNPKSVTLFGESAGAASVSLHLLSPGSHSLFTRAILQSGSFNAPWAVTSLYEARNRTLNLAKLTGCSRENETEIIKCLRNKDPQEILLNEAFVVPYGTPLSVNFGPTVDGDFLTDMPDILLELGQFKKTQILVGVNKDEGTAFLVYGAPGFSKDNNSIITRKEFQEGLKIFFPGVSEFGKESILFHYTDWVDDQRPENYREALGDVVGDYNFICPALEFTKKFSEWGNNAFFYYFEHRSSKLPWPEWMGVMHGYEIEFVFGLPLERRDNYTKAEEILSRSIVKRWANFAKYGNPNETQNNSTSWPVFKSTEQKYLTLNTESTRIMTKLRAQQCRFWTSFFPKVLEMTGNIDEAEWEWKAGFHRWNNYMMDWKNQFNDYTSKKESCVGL
# From the text: In turn, the concentrations of antipsychotics were constant in every measurement, and were chosen on the basis of estimated therapeutic plasma concentrations.
# Automatic simulation of synergism and antagonism at all doses or effect levels is possible by computer software, based on algorithms. Calculation of the combination index (CI) and isobologram analyses enable to quantitatively determine drug interactions, where CI < 1, =1 and >1 indicate synergism, additive effect and antagonism, respectively. […] The software also allowed us to display the dose–effect curve, the median–effect plot and the dose-reduction index (DRI) plot [36].
# BuChE [2] = target: T1, BuChE; test: Kinetic parameters of enzymatic reaction (Hanes–Woolf), BuChE; type: biochemical; design: The solution of plasma 200-fold diluted with 0.9% NaCl; from tissue; host or cells: citrated plasma from blood of healthy human donors
# Experimental: Kinetic parameters were obtained on the basis of three individual experiments carried out on different biological materials. For this purpose, various concentrations of substrates (ATC and BTC) were used in experiments. The type of inhibition and kinetic parameters of enzymatic reactions were obtained by linear regression using the Hanes–Woolf equations.
# AChE SI (selectivity index) was calculated by using the following formula: SI = IC50 of BuChE/IC50 of AChE. However, BuChE SI was defined as IC50 of AChE/IC50 of BuChE. Maximal velocity (Vmax) and the Michaelis constant (Km) were calculated with the use of linear regression—according to the Hanes–Woolf plot.
# [3] = target: T2, human erythrocyte acetylcholinesterase (Homo sapiens, UniProt P22303); test: AChE inhibition, modified Ellman's method; type: biochemical
# T2 construct: solution of hemolyzed erythrocytes diluted 400-fold; from tissue; host or cells: hemolyzed erythrocytes from blood of healthy human donors
# T2 sequence (P22303 32-617 isoform P22303-2 limits assumed): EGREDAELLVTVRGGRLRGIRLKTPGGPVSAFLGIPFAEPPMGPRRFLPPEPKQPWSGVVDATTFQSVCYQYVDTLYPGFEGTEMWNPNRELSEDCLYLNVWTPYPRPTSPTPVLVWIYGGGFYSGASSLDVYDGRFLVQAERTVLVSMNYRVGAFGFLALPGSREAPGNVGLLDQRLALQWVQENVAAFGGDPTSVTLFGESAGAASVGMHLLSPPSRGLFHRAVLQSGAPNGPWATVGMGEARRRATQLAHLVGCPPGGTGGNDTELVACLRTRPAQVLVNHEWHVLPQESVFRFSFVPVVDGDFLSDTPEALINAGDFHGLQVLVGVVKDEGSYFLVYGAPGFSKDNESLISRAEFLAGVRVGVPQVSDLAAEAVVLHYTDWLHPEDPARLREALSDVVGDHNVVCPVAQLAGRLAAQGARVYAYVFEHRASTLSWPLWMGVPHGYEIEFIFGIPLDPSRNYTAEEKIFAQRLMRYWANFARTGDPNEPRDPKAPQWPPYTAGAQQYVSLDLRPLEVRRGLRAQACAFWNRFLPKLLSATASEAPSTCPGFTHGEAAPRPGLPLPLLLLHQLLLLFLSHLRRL
# human erythrocytes = test: Methemoglobin formation in RBC with AAPH; type: cell-based; conditions: 5 h, AAPH control 61.9%
# Experimental: The blood samples were centrifuged (3000 rpm, 10 min, 20 °C, Micro 22 R centrifuge, Hettich Zentrifugen, Tuttlingen, Germany) to separate erythrocytes from the plasma and washed three times with 0.9% saline (NaCl). […] The erythrocytes were suspended in 0.9% saline. As control of basal hemolysis, erythrocytes were incubated with 0.9% NaCl. For total hemolysis control erythrocytes were incubated with 2.0% v/v Triton X-100. Incubation with Triton X-100 and K4[Fe(CN)6] (at concentration 50 g/L) was performed to control methemoglobin (MetHb) formation. Moreover, an antioxidant control containing ascorbic acid (AA) at a concentration of 10 µg/mL was prepared, while AAPH at a concentration of 50 mmol/L was an oxidizing agent. Antipsychotics at concentrations equaling their maximum therapeutic plasma concentrations (TPCmax), as well as 5-fold higher (5 × TPCmax) and 5-fold lower than TPCmax (1/5 × TPCmax), and the oxidizing agent AAPH at a concentration of 50 mmol/L, were added to 2% RBC suspension. Controls and tested samples were incubated at 37 °C. […] For each measurement, 0.5 mL samples were taken from incubated Eppendorf tubes and centrifuged (3000 rpm, 10 min). […] The percentage of hemolysis was calculated with the following formula:Hemolysis (%) = (Asample/Atotal hemolysis) × 100%(1) where Asample—absorbance of the test sample; Atotal hemolysis—the absorbance of the reference sample with 2% Triton X solution, corresponding to complete hemolysis.
# HUVEC cells = test: WST-1 viability under AAPH-induced oxidative stress, HUVEC; type: cell-based, human; conditions: AAPH 17.5 mmol/L, relative to pure medium control
# Experimental: WST-1 assay (Takara, Takara Bio Europe, Saint-Germain-en-Laye, France) was used to assess the effects of antipsychotics on the growth of HUVEC and astrocytes. The experiments were conducted as described previously. HUVEC were seeded at a density of 7500 cells, and astrocytes at 5000 cells per well on 96-well microplates and cultured for 24 h followed by treatment with compounds at ½ × TPCmax and TPCmax or pure medium as a control (v = 100 μL) for another 24 h (37 °C, 5% CO2). Subsequently, the cells were washed with culture medium (100 μL) and WST-1 reagent diluted in medium (10 μL of reagent + 90 μL of medium) was added. The plates were incubated at 37 °C in 5% CO2 for another 90 min for HUVEC and 60 min for astrocytes. The absorbance was read at 450 nm using a microplate reader (iMARK, Bio-Rad, Hercules, CA, USA). The cells viability was expressed as a percentage of the control samples which constituted 100% viability.
# Moreover, the WST-1 assay was used to evaluate potential protective effects of antipsychotics on the growth of HUVEC and astrocytes under conditions of AAPH-induced oxidative stress. The experimental conditions were the same as in viability studies. AA at the final concentration of 10 μg/mL was used as an antioxidant control. After reaching the confluence, the antipsychotics were added at concentrations equaling ½ × TPCmax and TPCmax. After 1 h incubation under standard conditions, 50 μL AAPH was added to the wells containing tested compounds or AA. The AAPH concentration was chosen on the basis of preliminary experiments—17.5 mmol/L in HUVEC experiments, and 15.0 mmol/L in the case of astrocytes.
structure (smiles),measurement,setting,value
"OCCOCCN1CCN(C2=Nc3ccccc3Sc3ccccc32)CC1 [Quetiapine, quetiapine]","CI (combination index), BuChE",BuChE [1]; donepezil 2 μmol/L + antipsychotic at TPCmax,0.64
same,"CI (combination index), BuChE",BuChE [1]; donepezil 5 μmol/L + antipsychotic at TPCmax,0.64
same,"CI (combination index), BuChE",BuChE [1]; donepezil 10 μmol/L + antipsychotic at TPCmax,0.71
same,"CI (combination index), BuChE",BuChE [1]; donepezil 20 μmol/L + antipsychotic at TPCmax,0.75
same,"CI (combination index), BuChE",BuChE [1]; donepezil 50 μmol/L + antipsychotic at TPCmax,0.85
same,"CI (combination index), BuChE",BuChE [1]; rivastigmine 0.05 μmol/L + antipsychotic at TPCmax,2.24
same,"CI (combination index), BuChE",BuChE [1]; rivastigmine 0.1 μmol/L + antipsychotic at TPCmax,1.42
same,Vmax(i) BuChE,BuChE [2]; compound at its IC50,0.138 ± 0.058 A/min
same,Vmax(i) BuChE,BuChE [2]; compound at ½ IC50,0.239 ± 0.026 A/min
same,type of inhibition of BuChE,"BuChE [2]; from Km(i), Vmax(i) vs Km, Vmax, mixed inhibition",same type of inhibition
same,AChE reaction velocity,"[3]; over 4000 µg/L (two ends of the printed span), control 0.264 ± 0.014 A/min",0.257 ± 0.016 A/min and 0.241 ± 0.013 A/min
same,IC50,[3]; theoretical values calculated on the basis of extrapolated plots,> 100 µM
same,methemoglobin formation with AAPH,human erythrocytes; 80 μg/L,17.1%
same,methemoglobin formation with AAPH,human erythrocytes; 400 μg/L,18.8%
same,viability of HUVEC under AAPH,"HUVEC cells; TPC (bromperidol 25 μg/L, quetiapine 400 μg/L)",74.9%
same,viability of HUVEC under AAPH,"HUVEC cells; ½ × TPC (bromperidol 12.5 μg/L, quetiapine 200 μg/L)",66.8%
